pIC50: −log10 of the molar value.

In one assay the target is T1, Androgen receptor (Homo sapiens, UniProt P10275).
T1 sequence (P10275 whole entry): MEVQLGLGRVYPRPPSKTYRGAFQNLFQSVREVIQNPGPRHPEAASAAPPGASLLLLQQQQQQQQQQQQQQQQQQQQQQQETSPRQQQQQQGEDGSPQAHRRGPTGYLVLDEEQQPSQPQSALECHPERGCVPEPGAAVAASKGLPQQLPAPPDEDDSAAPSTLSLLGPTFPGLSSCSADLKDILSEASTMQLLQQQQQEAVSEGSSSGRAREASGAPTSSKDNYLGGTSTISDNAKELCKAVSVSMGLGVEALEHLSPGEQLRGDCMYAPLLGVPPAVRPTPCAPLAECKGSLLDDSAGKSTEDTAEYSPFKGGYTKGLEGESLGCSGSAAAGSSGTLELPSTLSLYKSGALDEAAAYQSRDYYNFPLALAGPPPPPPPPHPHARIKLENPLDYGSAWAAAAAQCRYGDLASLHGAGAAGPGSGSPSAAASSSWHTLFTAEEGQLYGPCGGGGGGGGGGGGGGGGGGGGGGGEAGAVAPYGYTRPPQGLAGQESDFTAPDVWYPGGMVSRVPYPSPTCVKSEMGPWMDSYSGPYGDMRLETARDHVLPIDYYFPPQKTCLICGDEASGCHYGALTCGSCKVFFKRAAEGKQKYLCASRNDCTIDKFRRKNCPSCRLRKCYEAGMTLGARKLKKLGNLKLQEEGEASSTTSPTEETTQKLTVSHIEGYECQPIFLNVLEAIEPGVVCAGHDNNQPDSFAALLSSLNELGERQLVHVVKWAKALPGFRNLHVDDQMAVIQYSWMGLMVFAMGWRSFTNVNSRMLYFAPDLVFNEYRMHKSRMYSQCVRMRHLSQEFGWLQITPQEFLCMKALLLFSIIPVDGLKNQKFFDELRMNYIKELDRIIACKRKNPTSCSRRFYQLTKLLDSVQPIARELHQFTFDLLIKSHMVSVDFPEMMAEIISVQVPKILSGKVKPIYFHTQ
Description: Binding affinity at AR.

For assay [1], the target named is T2, Thyroid hormone receptor beta (Homo sapiens, UniProt P10828).
T2 sequence (P10828 whole entry): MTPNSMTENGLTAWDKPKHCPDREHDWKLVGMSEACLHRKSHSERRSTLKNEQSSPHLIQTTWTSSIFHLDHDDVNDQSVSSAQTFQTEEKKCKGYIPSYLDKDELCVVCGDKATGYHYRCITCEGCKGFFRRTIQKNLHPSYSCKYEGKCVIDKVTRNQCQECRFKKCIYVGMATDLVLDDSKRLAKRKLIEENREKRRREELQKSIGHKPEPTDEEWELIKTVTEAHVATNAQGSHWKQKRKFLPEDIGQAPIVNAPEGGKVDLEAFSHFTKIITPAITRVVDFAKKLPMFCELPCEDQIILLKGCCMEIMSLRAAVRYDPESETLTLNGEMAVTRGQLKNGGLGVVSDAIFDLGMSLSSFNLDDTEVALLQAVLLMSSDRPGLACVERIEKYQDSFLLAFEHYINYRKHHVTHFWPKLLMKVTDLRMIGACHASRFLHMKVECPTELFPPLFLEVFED
Description: Antagonist activity at human TR-beta-1 expressed in CHO cells assessed as TRAF-beta-1-driven gene transactivation by alkaline phosphatase reporter gene assay

The target in the next assay is T3, Glucocorticoid receptor (Homo sapiens, UniProt P04150).
T3 sequence (P04150 whole entry): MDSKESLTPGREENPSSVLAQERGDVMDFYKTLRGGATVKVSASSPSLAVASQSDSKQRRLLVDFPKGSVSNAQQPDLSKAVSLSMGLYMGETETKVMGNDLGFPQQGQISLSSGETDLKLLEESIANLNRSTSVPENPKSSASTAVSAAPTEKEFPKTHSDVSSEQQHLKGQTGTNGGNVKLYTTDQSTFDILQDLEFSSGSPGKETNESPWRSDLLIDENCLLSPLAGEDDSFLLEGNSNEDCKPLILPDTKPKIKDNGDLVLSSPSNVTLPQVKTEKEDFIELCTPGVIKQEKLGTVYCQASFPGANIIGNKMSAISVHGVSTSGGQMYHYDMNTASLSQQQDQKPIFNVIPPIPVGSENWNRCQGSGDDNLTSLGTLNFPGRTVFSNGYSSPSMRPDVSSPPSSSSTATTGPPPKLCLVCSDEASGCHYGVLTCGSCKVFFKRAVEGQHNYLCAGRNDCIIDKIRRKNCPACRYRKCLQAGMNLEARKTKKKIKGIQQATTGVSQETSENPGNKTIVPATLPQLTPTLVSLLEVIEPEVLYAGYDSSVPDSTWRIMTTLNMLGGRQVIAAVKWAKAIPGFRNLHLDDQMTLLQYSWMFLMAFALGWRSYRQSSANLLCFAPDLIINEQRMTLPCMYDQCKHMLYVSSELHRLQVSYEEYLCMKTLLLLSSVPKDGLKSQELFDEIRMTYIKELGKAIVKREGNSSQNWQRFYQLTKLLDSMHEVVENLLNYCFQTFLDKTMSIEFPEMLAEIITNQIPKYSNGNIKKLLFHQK
Kind of assay: Binding affinity at GR.

The target of assay [2] is T4, Thyroid hormone receptor alpha (Homo sapiens, UniProt P10827).
T4 sequence (P10827 whole entry): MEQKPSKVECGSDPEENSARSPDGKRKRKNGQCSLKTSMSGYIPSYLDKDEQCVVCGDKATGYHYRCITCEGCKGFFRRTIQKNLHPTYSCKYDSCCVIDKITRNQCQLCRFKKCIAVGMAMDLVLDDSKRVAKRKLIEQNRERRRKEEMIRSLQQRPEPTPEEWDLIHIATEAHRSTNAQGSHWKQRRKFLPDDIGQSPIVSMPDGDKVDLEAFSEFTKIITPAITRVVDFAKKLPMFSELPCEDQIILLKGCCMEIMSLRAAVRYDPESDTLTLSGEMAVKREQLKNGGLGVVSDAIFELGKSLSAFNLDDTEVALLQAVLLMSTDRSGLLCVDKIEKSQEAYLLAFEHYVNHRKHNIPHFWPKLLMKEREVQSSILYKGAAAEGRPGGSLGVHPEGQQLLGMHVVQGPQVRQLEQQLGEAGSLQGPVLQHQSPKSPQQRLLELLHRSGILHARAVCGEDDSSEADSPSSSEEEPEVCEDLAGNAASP
Kind of assay: Binding affinity at human TRalpha1.

A further assay is filed under the species Homo sapiens. Description: Selectivity for human TR-alpha-1 to human TRbeta1.

What is called pIC50 is the negative decadic logarithm of the IC50, by convention in mol/L. Read a low pIC50 as a large IC50. With `O=C(O)CCc1cc(Br)c(OCc2cccc(Br)c2)c(Br)c1`, the pIC50 is 5.11 on Androgen receptor, 6.64 in assay [1], 4.85 at Glucocorticoid receptor and 7.00 in assay [2]. Further, the Ratio IC50 in the assay filed under Homo sapiens came to 0.97.
